“Also recorded” adds a separate entry of the source. Ends that are not written are not given here.
Key:
[1] = system: Staph. aureus DPC5245; assay: Deferred antagonism assay; type: cell-based; conditions: producing strain; diameter of zone minus 5 mm; average of duplicates; St. aureus DPC5245
Procedure, shortened: (§1)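 Producer strains replicated on GM17 agar, grown overnight, then overlaid with soft agar (0.75% w/v) seeded with indicator strain. Zone size = clearing diameter minus 5 mm growth diameter, relative to NZ9800 pCI372nisA control; mean of duplicates.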

[2] = system: Staph. aureus ST528 (MRSA); assay: Deferred antagonism assay; type: cell-based; conditions: producing strain, diameter of zone minus diameter of bacterial growth (5 mm), average of duplicates
Procedure, shortened: as §1

[3] = system: Strep. agalactiae ATCC13813; assay: Deferred antagonism assay; type: cell-based; conditions: producing strain, diameter of zone minus 5 mm, average of duplicates
[4] = system: L. monocytogenes CBC1; assay: Deferred antagonism assay; type: cell-based, Listeria monocytogenes; parameters: key: + = Enhanced bioactivity relative to control; − = Bioactivity equal to or less than control; NA = no activity evident; conditions: producing strain; L. mono CBC1
Procedure, shortened: (§2)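 Producer strains replicated on GM17 or GM17 x-gal agar, grown overnight, then overlaid with 0.75% agar seeded with indicator strain. Zone size = diameter of clearing minus 5 mm growth diameter. Purified nisins tested by well diffusion at 37° C overnight; activity in AU/ml from reciprocal of highest active dilution × 20.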

[5] = system: L. monocytogenes CBC2; assay: Deferred antagonism assay; type: cell-based, Listeria monocytogenes; parameters: key: + = Enhanced bioactivity relative to control; − = Bioactivity equal to or less than control; NA = no activity evident; conditions: producing strain; L. mono CBC2
Procedure, shortened: as §2

[6] = system: L. monocytogenes CBC3; assay: Deferred antagonism assay; type: cell-based, Listeria monocytogenes; parameters: key: + = Enhanced bioactivity relative to control; − = Bioactivity equal to or less than control; NA = no activity evident; conditions: producing strain; L. mono CBC3
Procedure, shortened: as §2

[7] = system: L. monocytogenes EGDe; assay: Deferred antagonism assay; type: cell-based; conditions: nisin strain; Listeria monocytogenes EDGe
Description: (§3) Deferred antagonism assays were performed by replicating strains on GM17 or GM17 x-gal agar plates and allowing them to grow overnight before overlaying with either GM17/BHI/TS/MH agar (0.75% w/v agar) seeded with the appropriate indicator strain. Zone size was calculated as the diameter of the zone of clearing minus the diameter of bacterial growth (5 mm) For higher throughput screening of N20PXX, XM21VX, XXK22T and XXX banks deferred antagonism assays were performed by replicating strains using a 96 pin replicator (Boekel) or spotting 5 μl of a fresh overnight culture on GM17 agar plates and allowing them to grow overnight. […] Additional sets of indicators were employed to further assess/reassess the bioactivity of a number of strains. […] For well-diffusion assays molten agar was cooled to 48° C. and seeded with the appropriate indicator strain. The inoculated medium was rapidly transferred into sterile Petri plates in 50 ml volumes, allowed to solidify and dried. Wells (4.6 mm in diameter) were then made in the seeded plates. Purified nisin and mutant nisins were resuspended in 0.005% acetic acid, serially diluted, 50 μl volumes were dispensed into the aforementioned wells and the plates incubated at 37° C. overnight. Bioactivity was expressed as arbitrary units/ml (AU/ml) and calculated as the reciprocal of the highest dilution that gave a definite zone multiplied by the conversion factor (i.e. 20 when 50 μl was used) (Ryan et al., 1996).

[8] = system: Listeria monocytogenes 33007; assay: Deferred antagonism assay; type: cell-based; conditions: nisin strain; L. monocytogenes 33007
Description: as §3

[9] = system: Listeria monocytogenes 33013; assay: Deferred antagonism assay; type: cell-based; conditions: nisin strain; L. monocytogenes 33013
Description: as §3

[10] = system: Listeria monocytogenes 33037; assay: Deferred antagonism assay; type: cell-based; conditions: nisin strain; L. monocytogenes 33037
Description: as §3

[11] = system: Listeria monocytogenes 33077; assay: Deferred antagonism assay; type: cell-based; conditions: nisin strain; L. monocytogenes 33077
Description: as §3

[12] = system: Listeria monocytogenes 33090; assay: Deferred antagonism assay; type: cell-based; conditions: nisin strain; L. monocytogenes 33090
Description: as §3

[13] = system: Listeria monocytogenes 33186; assay: Deferred antagonism assay; type: cell-based; conditions: nisin strain; L. monocytogenes 33186
Description: as §3

[14] = system: Listeria monocytogenes 33411; assay: Deferred antagonism assay; type: cell-based; conditions: nisin strain; L. monocytogenes 33411
Description: as §3

[15] = system: Listeria monocytogenes 33423; assay: Deferred antagonism assay; type: cell-based; conditions: nisin strain; L. monocytogenes 33423
Description: as §3

[16] = system: Listeria monocytogenes CD1038; assay: Deferred antagonism assay; type: cell-based; conditions: nisin strain; L. monocytogenes CD1038
Description: as §3

[17] = system: Listeria monocytogenes CD83; assay: Deferred antagonism assay; type: cell-based; conditions: nisin strain; L. monocytogenes CD83
Description: as §3

[18] = system: Listeria monocytogenes LO28; assay: Deferred antagonism assay; type: cell-based; conditions: nisin strain; L. monocytogenes LO28
Description: as §3

[19] = system: Listeria monocytogenes NRRLB 33038; assay: Deferred antagonism assay; type: cell-based; conditions: nisin strain; L. monocytogenes NRRLB 33038
Description: as §3

[20] = system: Listeria monocytogenes SLCC 4949; assay: Deferred antagonism assay; type: cell-based; conditions: nisin strain; L. monocytogenes SLCC 4949
Description: as §3

[21] = system: 30 L. monocytogenes and 3 L. innocua strains; assay: Deferred antagonism assay, collection of Listeria strains; type: cell-based; conditions: of 30 L. monocytogenes and 3 L. innocua strains
Description: as §3

[22] = system: indicator strains; assay: Deferred antagonism assays, various indicator strains (summary); type: cell-based; conditions: relative to nisin A-producing control; value = strains listed
Procedure, shortened: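 Producer strains were replicated on GM17 or GM17 x-gal agar, grown overnight, then overlaid with GM17, BHI, TS or MH soft agar (0.75% w/v) seeded with the indicator strain. Zone size was taken as the clearing diameter minus the diameter of bacterial growth (5 mm).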

“NisinA M21S (ITSISLCTPGCKTGALMGCNSKTATCHCSIHVSK; not fully specified; also: lantibiotic nisin: dehydrated residues and thioether rings not placed; UniProt P13068 24-57, looked up, variant M21S) [nisin A derivative, hinge substitution M21S]” was tested, and the “zone size relative to that of the NZ9800 pCI372nisA control” value (shortened to “zone size relative to that”) [1] was 110%, the “zone size relative to that” value [2] was 105% and the “zone size relative to that” value [3] was 110%. The “Bioactivity relative to control” value [4] was “−”, the “Bioactivity relative to control” value [5] was “+” and the “Bioactivity relative to control” value [6] was “+”. For the same substance, the “Activity score (zone)” value [7] was “++ (++, 6-10 mm zone)”, the “Activity score (zone)” value [8] was “++ (++, 6-10 mm zone)” and the “Activity score (zone)” value [9] was “+ (+, 1-5 mm zone)”. The “Activity score (zone)” value [10] was “++ (++, 6-10 mm zone)”, the “Activity score (zone)” value [11] was “++ (++, 6-10 mm zone)” and the “Activity score (zone)” value [12] was “+ (+, 1-5 mm zone)”. For the same substance, the “Activity score (zone)” value [13] was “+ (+, 1-5 mm zone)”, the “Activity score (zone)” value [14] was “++ (++, 6-10 mm zone)” and the “Activity score (zone)” value [15] was “+ (+, 1-5 mm zone)”. For the same substance, the “Activity score (zone)” value [16] was “++ (++, 6-10 mm zone)”, the “Activity score (zone)” value [17] was “+ (+, 1-5 mm zone)” and the “Activity score (zone)” value [18] was “+++ (+++, <10 mm zone)”. For the same substance, the “Activity score (zone)” value [19] was “++ (++, 6-10 mm zone)”, the “Activity score (zone)” value [20] was “+ (+, 1-5 mm zone)” and the “number of strains with enhanced bioactivity (relative to the control)” value [21] was 26. For the same substance, the “number of strains with equal levels of bioactivity” value [21] was 7 and the “Strain(s) against which the derivative (producing strain) displays enhanced bioactivity” value [22] was “L. monocytogenes CBC2 , CBC3, Staph. aureus CBC4, C. sporogenes CBC5 and L. lactis CBC8; also recorded: L. monocytogenes CBC2 , CBC3, S. aureus CBC4, C. sporogenes CBC5, L. lactis CBC8 and an additional 23 L. monocytogenes strains and 3 L. innocua”.

— US8987193B2, “Nisin derivatives and the use thereof” (University College Cork—National University of Ireland, Cork, priority 2008, dated 2015)
